Experimental data published in paper PMC6271731, “Multitarget Molecular Hybrids of Cinnamic Acids” (Molecules, 2014).

Assay: TLC screening for free radical scavengers (DPPH)
Details: plates sprayed with 0.1 mM DPPH ethanolic solution
Protocol: TLC was used for screening the synthesized hybrids as radical scavengers. The compound solutions in DMSO were spotted onto a silica gel F254 precoated plate and developed using […] and 95% CHCl3 as developing solvents. After development the plates were air-dried and sprayed with 0.1 mM DPPH ethanolic solution for detecting the compounds with rapid scavenging properties.

Structure (SMILES): CC(Cc1ccc(O)c(O)c1)C(C)Cc1ccc(O)c(O)c1 (stereo not shown) [NDGA, nordihydroguaiaretic acid]
- scavenging of DPPH (visual, TLC): white spots on a purple background
